According to patent US4431636A, “Bis(4-O-polyhexaose-thio)-phenyl ureas and method of use” (American Cyanamid Company, priority 1982, dated 1984):
Read-outs that look alike come from different tables or passages of the source.

Assays:
[1] = test system: late components of human complement (C3-C9); experiment: Test Code 035 (C3-C9 inhibitor); assay type: biochemical; conditions: in vitro; lysis of EAC 142; serial twofold dilution assay, higher well number higher activity
Protocol: (§1) Percent inhibition is calculated by comparison with simultaneous controls.

[2] = test system: serum complement activity; experiment: Guinea Pig Intraperitoneal Test (GPIP); assay type: in vivo; conditions: Cavia porcellus, ip, 200 mg/kg i.p.
Protocol: as §1

[3] = biological target: activated human C1 (Homo sapiens, UniProt P09871); experiment: Test Code 026 (C1 inhibitor); assay type: biochemical; conditions: in vitro; serial twofold dilution assay, higher well number higher activity
Protocol: as §1

activated human C1, sequence (P09871 16-688): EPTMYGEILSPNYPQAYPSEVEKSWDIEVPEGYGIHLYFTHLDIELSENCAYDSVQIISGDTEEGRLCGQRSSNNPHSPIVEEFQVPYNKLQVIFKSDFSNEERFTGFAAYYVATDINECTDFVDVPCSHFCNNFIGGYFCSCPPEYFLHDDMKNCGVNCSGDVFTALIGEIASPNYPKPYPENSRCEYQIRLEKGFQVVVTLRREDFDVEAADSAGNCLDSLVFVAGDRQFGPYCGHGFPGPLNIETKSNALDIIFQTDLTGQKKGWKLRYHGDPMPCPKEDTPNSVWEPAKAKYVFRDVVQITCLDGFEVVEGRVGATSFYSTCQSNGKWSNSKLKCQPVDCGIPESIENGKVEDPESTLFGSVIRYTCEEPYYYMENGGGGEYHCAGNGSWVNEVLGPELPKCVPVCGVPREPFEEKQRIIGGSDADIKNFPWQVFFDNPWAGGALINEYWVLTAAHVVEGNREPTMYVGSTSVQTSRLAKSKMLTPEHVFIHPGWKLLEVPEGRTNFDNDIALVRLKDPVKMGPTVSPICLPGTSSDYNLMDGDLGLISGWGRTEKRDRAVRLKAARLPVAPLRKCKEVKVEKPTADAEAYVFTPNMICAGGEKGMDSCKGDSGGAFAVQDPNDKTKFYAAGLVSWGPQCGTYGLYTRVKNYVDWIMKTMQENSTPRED
activated human C1, sequence (P00736 18-705 partner): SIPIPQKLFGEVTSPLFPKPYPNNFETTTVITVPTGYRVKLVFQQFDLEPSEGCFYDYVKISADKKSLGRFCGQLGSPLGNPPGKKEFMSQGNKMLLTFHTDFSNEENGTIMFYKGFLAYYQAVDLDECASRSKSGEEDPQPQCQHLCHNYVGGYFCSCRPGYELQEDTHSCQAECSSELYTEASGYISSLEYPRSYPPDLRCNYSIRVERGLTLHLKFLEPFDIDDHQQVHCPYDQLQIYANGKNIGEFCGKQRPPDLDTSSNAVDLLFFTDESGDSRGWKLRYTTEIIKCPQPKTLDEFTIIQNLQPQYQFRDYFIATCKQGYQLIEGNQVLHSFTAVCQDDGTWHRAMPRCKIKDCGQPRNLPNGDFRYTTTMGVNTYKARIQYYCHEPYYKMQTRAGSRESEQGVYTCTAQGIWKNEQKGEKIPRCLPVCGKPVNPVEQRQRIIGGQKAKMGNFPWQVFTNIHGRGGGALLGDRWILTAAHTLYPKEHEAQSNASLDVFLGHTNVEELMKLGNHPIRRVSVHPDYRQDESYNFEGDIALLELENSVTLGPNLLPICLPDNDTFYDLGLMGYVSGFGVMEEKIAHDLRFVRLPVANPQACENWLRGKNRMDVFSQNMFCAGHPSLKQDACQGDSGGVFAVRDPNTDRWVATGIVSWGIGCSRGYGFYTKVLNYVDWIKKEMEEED
activated human C1, sequence (P02745 23-245 partner): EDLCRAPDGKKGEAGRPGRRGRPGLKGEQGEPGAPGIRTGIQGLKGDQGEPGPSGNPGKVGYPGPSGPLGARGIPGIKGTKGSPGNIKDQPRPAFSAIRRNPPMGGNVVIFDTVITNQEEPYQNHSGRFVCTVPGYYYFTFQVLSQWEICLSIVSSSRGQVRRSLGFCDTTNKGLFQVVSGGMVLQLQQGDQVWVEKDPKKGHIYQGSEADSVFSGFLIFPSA
activated human C1, sequence (P02746 28-253 partner): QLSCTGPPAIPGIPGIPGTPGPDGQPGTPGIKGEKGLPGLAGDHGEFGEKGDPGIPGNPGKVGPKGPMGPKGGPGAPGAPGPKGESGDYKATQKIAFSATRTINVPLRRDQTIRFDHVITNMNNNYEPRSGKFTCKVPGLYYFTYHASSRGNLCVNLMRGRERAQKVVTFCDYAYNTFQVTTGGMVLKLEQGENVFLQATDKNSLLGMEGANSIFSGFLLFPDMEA
activated human C1, sequence (P02747 29-245 partner): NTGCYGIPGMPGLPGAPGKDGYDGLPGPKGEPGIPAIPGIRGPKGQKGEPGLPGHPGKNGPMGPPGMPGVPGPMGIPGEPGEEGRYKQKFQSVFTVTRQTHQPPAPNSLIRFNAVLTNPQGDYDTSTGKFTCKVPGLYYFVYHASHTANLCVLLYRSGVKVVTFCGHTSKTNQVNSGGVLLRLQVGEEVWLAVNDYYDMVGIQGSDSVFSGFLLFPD

O=C(Nc1ccc(S[C@@H]2O[C@H](COS(=O)(=O)O)[C@@H](O[C@H]3O[C@H](COS(=O)(=O)O)[C@@H](OS(=O)(=O)O)[C@H](OS(=O)(=O)O)[C@H]3OS(=O)(=O)O)[C@H](OS(=O)(=O)O)[C@H]2OS(=O)(=O)O)cc1)Nc1ccc(S[C@@H]2O[C@H](COS(=O)(=O)O)[C@@H](O[C@H]3O[C@H](COS(=O)(=O)O)[C@@H](OS(=O)(=O)O)[C@H](OS(=O)(=O)O)[C@H]3OS(=O)(=O)O)[C@H](OS(=O)(=O)O)[C@H]2OS(=O)(=O)O)cc1.[Na].[Na].[Na].[Na].[Na].[Na].[Na].[Na].[Na].[Na].[Na].[Na].[Na].[Na] [Tetradecasodium N,N'-bis[4-[[2,3,6-tri-O-sulfo-4-O-(2,3,4,6-tetra-O-sulfo-α-D-glucopyranosyl)-β-D-glucopyranosyl]thio]phenyl]urea]
C-Late 035 Wells [1]: 2 Wells | inhibition at 200 mg/kg ([2]; serum taken 2 hours after injection, read-out: In vivo Activity (Guinea Pig % Inhibition) (Intraperitoneal) Time 2 Hours): 90% | inhibition at 200 mg/kg ([2]; serum taken 6 hours after injection, read-out: In vivo Activity (Guinea Pig % Inhibition) (Intraperitoneal) Time 6 Hours): 91% | inhibition at 200 mg/kg ([2]; serum taken 24 hours after injection, read-out: In vivo Activity (Guinea Pig % Inhibition) (Intraperitoneal) Time 24 Hours): 58% | C-1 026 Wells [3]: 11 Wells
